{"source": "ChEMBL document CHEMBL1137937", "about": "“Synthesis and pharmacological evaluation of prenylated and benzylated pterocarpans against snake venom” (2004)", "format_in_all_cases": "functional", "key": {"[1]": {"organism": "Mus musculus", "test": "Inhibition of the increase of the rate of CK release induced by […] of Bothrops jararacussu venom on isolated EDL mouse muscles after 60 min of exposure at 0.1-30 uM"}, "[2]": {"organism": "Mus musculus", "test": "Inhibition of the increase of the rate of CK release induced by […] of Bothrops jararacussu venom on isolated EDL mouse muscles after 60 min of exposure at 10-30 uM"}, "[3]": {"organism": "Mus musculus", "test": "Inhibition of the increase of the rate of CK release induced by […] of Bothrops jararacussu venom on isolated EDL mouse muscles after 60 min of exposure at 0.1-1.0 uM"}, "[4]": {"organism": "Mus musculus", "test": "Inhibition of the increase of the rate of CK release induced by […] of Bothrops jararacussu venom on isolated EDL mouse muscles after 60 min of exposure at 0.1-10 uM"}}, "data": [{"smiles": "Oc1ccc2c(c1Cc1ccccc1)OC[C@H]1c3cc4c(c(Cc5ccccc5)c3O[C@@H]21)OCO4", "values": [{"measurement": "Inhibition", "setting": "[1]", "result": 0, "unit": "%"}]}, {"smiles": "CC(C)=CCc1c(O)ccc2c1OC[C@H]1c3cc4c(cc3O[C@@H]21)OCO4", "values": [{"measurement": "Inhibition", "setting": "[2]", "result": 0, "unit": "%"}, {"measurement": "Inhibition", "setting": "[3]", "result": ">40", "unit": "%"}]}, {"smiles": "CC(C)=CCc1c2c(cc3c1O[C@H]1c4ccc(O)c(CC=C(C)C)c4OC[C@@H]31)OCO2", "values": [{"measurement": "Inhibition", "setting": "[1]", "result": 0, "unit": "%"}]}, {"smiles": "Oc1ccc2c(c1)OC[C@H]1c3cc4c(c(Cc5ccccc5)c3O[C@@H]21)OCO4", "values": [{"measurement": "Inhibition", "setting": "[1]", "result": 0, "unit": "%"}]}, {"smiles": "Oc1ccc2c(c1)OC[C@H]1c3cc4c(cc3O[C@@H]21)OCO4", "note": "[MAACKIAIN]", "values": [{"measurement": "Inhibition", "setting": "[1]", "result": 0, "unit": "%"}]}, {"smiles": "CC(C)=CCc1c2c(cc3c1O[C@H]1c4ccc(O)cc4OC[C@@H]31)OCO2", "values": [{"measurement": "Inhibition", "setting": "[1]", "result": 0, "unit": "%"}]}, {"smiles": "Oc1ccc2c(c1Cc1ccccc1)OC[C@H]1c3cc4c(cc3O[C@@H]21)OCO4", "values": [{"measurement": "Inhibition", "setting": "[4]", "result": ">70", "unit": "%"}]}]}
